Measured values as given in patent publication US8324188B2, “Combinations of ET-18-O-CH3and anti-cancer agents for the treatment of cancer” (priority 2006, dated 2012).

What was measured:
LN-18 = assay: WST-1 proliferation assay, LN-18; type: cell-based; conditions: Homo sapiens
Description: (§1) 2000 cells were plated in each well of 96-well flat bottom plates, and incubated overnight at 37 °C in 5% CO2. The growth of plated cells was measured by adding […] of WST-1 reagent (Roche Applied Sciences, Germany) to 3 control wells and measuring the absorbance at 650 nm and at 450 nm, respectively, with a SpectraMax250 plate reader. […] After this incubation, VVST-1 reagent was added to the wells and OD650-OD450 values were calculated as before. six wells were assayed for each conditions and standard deviation was determined: all experiments were performed at least three times independently. […] Six different concentrations of each drug were used in combinations index measurements and compared to +/− cells, and compared to controls without compound.

T98G = assay: WST-1 proliferation assay, T98G; type: cell-based; conditions: Homo sapiens
Description: as §1, with “AP-121 was prepared as 5 mM stock solution in distilled sterile water, Temozolomide (TMZ) (Haorui Pharma-Chem, Inc., Edison, N.J.) was prepared as 100 mM in sterile filtrated DMSO; Adriamycin (ADR) (Sigma) was prepared as 1 mM in distilled sterile water; Camptothecin (CTP) (Sigma) was prepared as 10 mM solution in 0.1 N NaOH; Tarceva (Proteinkinase, Germany) was prepared as 5 mM solution in sterile DMSO. All compound stocks were kept at −20° C. 2000” for “2000”

[1] = tested on: LNCaP cells grown orthotopically in the prostates of nude mice; assay: LNCaP cells grown orthotopically in the prostates of nude mice (PSA, tumor volume); type: in vivo; conditions: 0-30 mg/kg intraperitoneal injections and concomitant irradiation; dose-dependent effect
Description: FIG. 2. Depicts the in vivo effects of 1-O-octadecyl-2-O-methyl-glycero-3-phosphocholine (30 mg/kg body weight/day administered intraperitoneally for 15 days; FIG. 2A), (ionizing) radiation (absorbed dose of 5 Gray units administered on day 7); FIG. 2C), and a combination thereof (FIG. 2B) on LNCaP cells grown orthotopically in the prostates of nude mice (seven mice/group). Tumor growth was assessed via determining the serum level of the prostate-specific antigen (PSA) using a commercially available test kit as well as the tumor volume by means of magnetic resonance imaging. Graphed lines show tumor size in individual mice.
It is known that prostate cancer cell lines express FAS receptor, that some of them are not sensitive to FAS (O. W. Rokhlin et al., Cancer Res. 1997, 57: 1758-68). […]
1-O-octadecyl-2-O-methyl-glycero-3-phosphocholine was administered intraperitoneally in a dose of 30 mg/kg body weight/day administered intraperitoneally for 15 days (FIG. 2A; studies using different routes of administration such as orally or by gavage are currently under way). […] Tumor growth was assessed via determining the serum level of the prostate-specific antigen (PSA) using a commercially available test kit as well as the tumor volume by means of magnetic resonance imaging.

HMEC1 endothelial cells = conditions: cited from earlier work

## CCCCCCCCCCCCCCCCCCOCC(COP(=O)([O-])OCC[N+](C)(C)C)OC (racemic) [AP-121, 1-O-octadecyl-2-O-methyl-glycero-3-phosphocholine]
LN-18
  IC50: 1300 nM
T98G
  IC50: 4100 nM
[1]
  PSA (prostate specific antigen) levels: reduced after few days of treatment
  tumor size: shrinkage of the tumor size after one week of treatment
HMEC1 endothelial cells
  anti-angiogenic activity: 60 nM
